1 substance from patent US6391568B1, “Method for determining platelet reactivity in a whole blood sample” (Lionheart Technologies, Inc., priority 1998, dated 2002) can be followed below.

The test system of this experiment is platelets (surface glycoprotein IIb-IIIa). Nature of the experiment: Inhibition of fibrinogen*FITC binding to ADP-activated platelets in whole blood spiked with ReoPro (microtitration well capture). The experiment is classed as cell-based. Conditions: whole blood (CTI 32 μg/ml) pretreated with ReoPro 3 μg/ml; ADP 0, 0.4, 0.8 μM; FIG. 3. The text has this:
The concentration of ReoPro used is that known to inhibit the aggregation of platelets as determined with the use of aggregometry.

In the case of “ReoPro: antiplatelet drug that inhibits binding of fibrinogen to the activated conformer of surface glycoprotein IIb-IIIa”, the “binding of fibrinogen*FITC to platelets (ratio of fibrinogen*FITC signal to CD42*PerCP signal)” value is on record as “inhibits”.
